Test results reported in US20230135215A1, “COMPOUNDS AS CDK2/4/6 INHIBITORS” (Fochon Biosciences, Ltd., priority 2020, published 2023).

Legend:
HCC1806 cells = test: Cell proliferation assay (MTS), HCC1806 (CDK4/6 independent) cells; assay type: cell-based; conditions: Homo sapiens, HCC1806 (CDK4/6 independent) cell proliferation inhibition, 120 h incubation, absorbance 490 nm
Source text: (§1) MTS testing kit was purchased from Promega (Madison, Wis., USA). The RPMI-1640, DMEM, Fetal bovine serum and Penicillin-Streptomycin were purchased from BI (Biological Industries, Beit Haemek, Israel). Dimethyl sulfoxide (DMSO) was purchased from Sigma (St. Louis, Mo., USA).
(§2) To investigate whether a compound is able to inhibit the activity of CDK2/4/6 in cells, we developed a mechanism-based assay using HCC1806 (CDK4/6 independent) and Hs68 (CDK4/6 dependent) cell lines. In this assay, inhibition of CDK2/4/6 was detected by the cell proliferation inhibition of HCC1806 and Hs68 cells. HCC806 and HS68 cells cultured in PRMI-1640 and DMEM supplemented with 10% fetal bovine serum respectively to 40-80% confluence were collected and plated into 96-well plates at desired cell density of 5×10^3/mL. Plates were incubated at 37° C., with 5% CO2 for 24 h. Compounds were serially diluted and added to the plates with the final concentrations as 10000, 3333.3, 1111.1, 370.4, 123.5, 41.2, 13.7, 4.6 and 1.5 nM. Plates were incubated at 37° C., with 5% CO2 for 120 h. A mixture of 20 μl MTS/100 μl medium were added to each well and the plates were incubated at 37° C., with 5% CO2 for exactly 2 h. The absorbance was measured by a microplate reader at 490 nm. IC50 was calculated using GraphPad Prism 5.0 software.

Hs68 cells = test: Cell proliferation assay (MTS), Hs68 (CDK4/6 dependent) cells; assay type: cell-based; conditions: Homo sapiens, Hs68 (CDK4/6 dependent) cell proliferation inhibition, 120 h incubation, absorbance 490 nm
Source text: as §1, §2

| SMILES | IC50 (HCC1806 cells) | IC50 (Hs68 cells) |
| --- | --- | --- |
| CS(=O)(=O)N1CCC(Nc2ncc3ccc(=O)n(C4CCCC45CC5)c3n2)CC1 (stereo not drawn) [Example 1, 2-((1-(Methylsulfonyl)piperidin-4-yl)amino)-8-(spiro[2,4]heptan-4-yl)pyrido[2,3-d]pyrimidin-7(8H)-one] | 379 nM | 318 nM |
| CS(=O)(=O)N1CCC(Nc2ncc3cc(Cl)c(=O)n(C4CCCC45CC5)c3n2)CC1 (stereo not drawn) [Example 7, 6-Chloro-2-((1-(methylsulfonyl)piperidin-4-yl)amino)-8-(spiro[2,4]heptan-4-yl)pyrido[2,3-d]pyrimidin-7(8H)-one] | 308 nM | 233 nM |
| CS(=O)(=O)N1CCC(Nc2ncc3cc(C(F)F)c(=O)n(C4CCCC45CC5)c3n2)CC1 (stereo not drawn) [Example 18, 6-(difluoromethyl)-2-((1-(methylsulfonyl)piperidin-4-yl)amino)-8-(spiro[2.4]heptan-4-yl)pyrido[2,3-d]pyrimidin-7(8H)-one] | 233 nM | – |
| Cc1cc2cnc(NC3CCN(S(C)(=O)=O)CC3)nc2n(C2CCCC23CC3)c1=O (stereo not drawn) [Example 2, 6-Methyl-2-((1-(methylsulfonyl)piperidin-4-yl)amino)-8-(spiro[2,4]heptan-4-yl)pyrido[2,3-d]pyrimidin-7(8H)-one] | – | 322 nM |
| CS(=O)(=O)N1CCC(Nc2ncc3ccc(=O)n([C@@H]4CCCC45CC5)c3n2)CC1 [Example 23, (R)-2-((1-(methylsulfonyl)piperidin-4-yl)amino)-8-(spiro[2.4]heptan-4-yl)pyrido[2,3-d]pyrimidin-7(8H)-one] | 150 nM | 489 nM |
| CNS(=O)(=O)N1CCC(Nc2ncc3ccc(=O)n([C@H]4CCCC45CC5)c3n2)CC1 [Example 31, (S)-N-methyl-4-((7-oxo-8-(spiro[2.4]heptan-4-yl)-7,8-dihydropyrido[2,3-d]pyrimidin-2-yl)amino)piperidine-1-sulfonamide] | 118 nM | 418 nM |
| CS(=O)(=O)N1CCC(Nc2ncc3cc(Br)c(=O)n(C4CCCC45CC5)c3n2)CC1 (stereo not drawn) [Example 8, 6-Bromo-2-((1-(methylsulfonyl)piperidin-4-yl)amino)-8-(spiro[2,4]heptan-4-yl)pyrido[2,3-d]pyrimidin-7(8H)-one] | 305 nM | 105 nM |
| CS(=O)(=O)N1CCC(Nc2ncc3cc(C(F)F)c(=O)n([C@@H]4CCCC45CC5)c3n2)CC1 [Example 19, (R)-6-(difluoromethyl)-2-((1-(methyl-sulfonyl)piperidin-4-yl)amino)-8-(spiro[2.4]heptan-4-yl)pyrido[2,3-d]pyrimidin-7(8H)-one] | 139 nM | – |
| NS(=O)(=O)N1CCC(Nc2ncc3ccc(=O)n([C@H]4CCCC45CC5)c3n2)CC1 [Example 30, (S)-4-((7-oxo-8-(spiro[2.4]heptan-4-yl)-7,8-dihydropyrido[2,3-d]pyrimidin-2-yl)amino)piperidine-1-sulfonamide] | 409 nM | – |
| CS(=O)(=O)N1CCC(Nc2ncc3cc(C(F)F)c(=O)n([C@H]4CCCC45CC5)c3n2)CC1 [Example 20, (S)-6-(difluoromethyl)-2-((1-(methylsulfonyl)piperidin-4-yl)amino)-8-(spiro[2.4]heptan-4-yl)pyrido[2,3-d]pyrimidin-7(8H)-one] | 211 nM | – |
| CS(=O)(=O)N1CCC(Nc2ncc3ccc(=O)n([C@H]4CCCC45CC5)c3n2)CC1 [Example 24, (S)-2-((1-(methylsulfonyl)piperidin-4-yl)amino)-8-(spiro[2.4]heptan-4-yl)pyrido[2,3-d]pyrimidin-7(8H)-one] | 78 nM | 437 nM |
| CS(=O)(=O)N1CCC(Nc2ncc3cc(F)c(=O)n(C4CCCC45CC5)c3n2)CC1 (stereo not drawn) [Example 22, 6-fluoro-2-((1-(methylsulfonyl)piperidin-4-yl)amino)-8-(spiro[2.4]heptan-4-yl) pyrido[2,3-d]pyrimidin-7(8H)-one] | 318 nM | – |
